# Assay results as given in ChEMBL document CHEMBL1201862, “PubChem BioAssay data set” (2004).
# Active and inactive are the calls of the source.
# Columns and labels:
# [1] = cells
# [2] = biological target: Dual specificity protein phosphatase 3 (Homo sapiens, UniProt P51452); assay: Dose Response Confirmation of compounds that inhibit VHR1 in Fluorescent Assay. [Related pubchem assays (depositor defined):AID1661, AID1878]; assay type: functional
# [3] = biological target: T1, Low molecular weight phosphotyrosine protein phosphatase (Homo sapiens, UniProt P24666); assay type: functional; settings: read-out: IC50_Mean;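 further: Dose-response confirmation assay measuring inhibition of LMPTP enzyme activity by fluorescence intensity read-out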
# T1 sequence (P24666 whole entry): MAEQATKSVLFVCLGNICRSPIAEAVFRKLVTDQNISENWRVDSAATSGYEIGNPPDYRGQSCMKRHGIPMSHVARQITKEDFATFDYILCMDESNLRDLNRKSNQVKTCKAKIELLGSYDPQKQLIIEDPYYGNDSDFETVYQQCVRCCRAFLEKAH
# [4] = biological target: T2, Tyrosine-protein phosphatase non-receptor type 7 (Homo sapiens, UniProt P35236); assay: Dose Response confirmation of compounds that inhibit HePTP. [Related pubchem assays (depositor defined):AID1059, AID1661, AID2085]; assay type: functional
# T2 sequence (P35236 whole entry): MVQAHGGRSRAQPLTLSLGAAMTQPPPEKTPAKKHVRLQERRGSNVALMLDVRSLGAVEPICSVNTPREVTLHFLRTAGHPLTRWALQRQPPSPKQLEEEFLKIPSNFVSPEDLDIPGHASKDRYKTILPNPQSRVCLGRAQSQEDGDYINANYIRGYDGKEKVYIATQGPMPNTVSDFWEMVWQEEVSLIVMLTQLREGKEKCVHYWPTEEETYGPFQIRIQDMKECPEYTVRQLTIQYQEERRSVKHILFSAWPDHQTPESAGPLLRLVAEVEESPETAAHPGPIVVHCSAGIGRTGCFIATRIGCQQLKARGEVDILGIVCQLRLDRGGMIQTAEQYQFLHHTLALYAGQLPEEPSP
# [5] = antiviral protection against BTV-induced cell death – arbovirus, BSR cells, confirmation (AID 1250); assay type: functional;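 further: protection from viral cytopathic effect measured as cell viability by ATP luminescence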
# [6] = biological target: T3, Caspase-3 (Homo sapiens, UniProt P42574); assay: activation of caspase-3 zymogen – biochemical, absorbance, dose response (AID 489014)
# T3 sequence (P42574 whole entry): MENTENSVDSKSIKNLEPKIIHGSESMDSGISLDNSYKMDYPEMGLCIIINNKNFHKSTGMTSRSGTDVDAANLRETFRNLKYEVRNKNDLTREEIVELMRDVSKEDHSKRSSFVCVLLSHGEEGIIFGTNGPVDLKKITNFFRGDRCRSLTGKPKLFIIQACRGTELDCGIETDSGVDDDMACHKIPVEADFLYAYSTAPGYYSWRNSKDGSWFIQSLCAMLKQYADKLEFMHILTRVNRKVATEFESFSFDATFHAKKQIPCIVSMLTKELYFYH
# [7] = biological target: Caspase-7 (Homo sapiens, UniProt P55210); assay: activation of caspase-7 zymogen – biochemical, absorbance, counter-screen for procaspase-3 activator project, dose response (AID 489013)
# [8] = biological target: T4, Voltage-gated N-type calcium channel alpha-1B subunit/Amyloid beta A4 precursor protein-binding family A member 1 (Homo sapiens, UniProt Q00975+Q02410); assay: disruptors of Mint-PDZ/N-type channel peptide interaction – biochemical, HTRF, SAR follow-up (AID 2489); assay type: functional
# [9] = biological target: T4, Voltage-gated N-type calcium channel alpha-1B subunit/Amyloid beta A4 precursor protein-binding family A member 1; assay type: protein assay
# [10] = biological target: Large T antigen (Simian virus 40, UniProt P03070); assay type: functional, Betapolyomavirus macacae;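 further: Confirmatory-stage PubChem screen for compounds that inhibit SV40 T antigen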
# [11] = biological target: T5, Mannose-6-phosphate isomerase (Homo sapiens, UniProt P34949); assay: MPI inhibition at elevated mannose 6-phosphate – biochemical, fluorescence intensity, high mannose 6-phosphate, primary screen (AID 1220)
# T5 sequence (P34949 whole entry): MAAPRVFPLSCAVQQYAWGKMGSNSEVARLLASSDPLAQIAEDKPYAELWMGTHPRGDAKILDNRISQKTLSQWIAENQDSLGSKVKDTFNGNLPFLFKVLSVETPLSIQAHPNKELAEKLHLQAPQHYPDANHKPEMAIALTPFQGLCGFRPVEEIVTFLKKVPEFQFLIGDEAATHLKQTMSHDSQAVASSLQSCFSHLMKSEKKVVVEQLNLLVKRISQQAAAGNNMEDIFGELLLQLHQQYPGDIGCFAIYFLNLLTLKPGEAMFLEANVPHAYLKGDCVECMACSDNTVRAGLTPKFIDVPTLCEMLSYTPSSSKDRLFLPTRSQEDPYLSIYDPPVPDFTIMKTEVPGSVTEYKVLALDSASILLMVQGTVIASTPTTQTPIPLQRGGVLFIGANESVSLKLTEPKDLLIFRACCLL
# [12] = biological target: Eukaryotic translation initiation factor 4E (Mus musculus, UniProt P63073); assay: blockers of eIF4G binding by eIF4E – biochemical, TR-FRET, dose response (AID 855); assay type: functional;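 further: potency for disrupting eIF4E binding to eIF4GI seen as loss of FRET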
# [13] = biological target: T4, Voltage-gated N-type calcium channel alpha-1B subunit/Amyloid beta A4 precursor protein-binding family A member 1; assay type: protein assay; remark: listed apart in the source
# [14] = biological target: Glucose-6-phosphate 1-dehydrogenase (Homo sapiens, UniProt P11413); assay: inhibition of Homo sapiens G6PD, dose series – biochemical, fluorescence, selectivity assay for P. falciparum G6PD inhibitor project, dose response (AID 504792); assay type: functional
# [15] = biological target: Phosphoethanolamine/phosphocholine phosphatase (Homo sapiens, UniProt Q8TCT1); assay: SAR assay for compounds that inhibit PHOSPHO1. [Related pubchem assays (depositor defined):AID1545, AID1565, AID1574]
# [16] = biological target: T4, Voltage-gated N-type calcium channel alpha-1B subunit/Amyloid beta A4 precursor protein-binding family A member 1; assay: disruptors of Mint-PDZ/N-type channel peptide interaction – biochemical, HTRF, set 2, SAR follow-up (AID 434980); assay type: functional
# [17] = system: Staphylococcus aureus; assay: Inhibitors of Bacterial Quorum Sensing Structure Activity Relationship (SAR) Analysis: Dose Response Assay. [Related pubchem assays: 700, 527 ]; assay type: functional, organism-based
# [18] = biological target: Melanin-concentrating hormone receptor 1 (Homo sapiens, UniProt Q99705); assay: Late-stage fluorescence-based counterscreen for antagonists of the G-protein coupled receptor 7 (GPR7): cell-based dose response assay to identify antagonists of the melanin-concentrating hormone receptor 1 (MCHR1). [Related pubchem assays (depositor defined):AID1861, AID1880, AID1952, AID2148, AID2251, AID2257, AID485339]; assay type: functional;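 further: stimulated with 30 nM MCH peptide agonist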
# [19] = biological target: Protein-tyrosine kinase 2-beta (Homo sapiens, UniProt Q14289);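 further: potency of inhibitors of PYK2 kinase phosphorylation of poly-GT substrate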
# [20] = biological target: T6, SUMO-activating enzyme (Homo sapiens, UniProt Q9UBT2); assay: blockers of SAE1/SAE2–UBC9 SUMO transfer – biochemical, HTRF, uHTS, primary screen (AID 2006); assay type: protein-complex assay
# [21] = biological target: T6, SUMO-activating enzyme; assay: blockers of UBC9-mediated SUMO conjugation – biochemical, AlphaScreen, SUMOylation inhibitor project, confirmation (AID 2018); assay type: functional
# T4 sequence (Q00975 whole entry): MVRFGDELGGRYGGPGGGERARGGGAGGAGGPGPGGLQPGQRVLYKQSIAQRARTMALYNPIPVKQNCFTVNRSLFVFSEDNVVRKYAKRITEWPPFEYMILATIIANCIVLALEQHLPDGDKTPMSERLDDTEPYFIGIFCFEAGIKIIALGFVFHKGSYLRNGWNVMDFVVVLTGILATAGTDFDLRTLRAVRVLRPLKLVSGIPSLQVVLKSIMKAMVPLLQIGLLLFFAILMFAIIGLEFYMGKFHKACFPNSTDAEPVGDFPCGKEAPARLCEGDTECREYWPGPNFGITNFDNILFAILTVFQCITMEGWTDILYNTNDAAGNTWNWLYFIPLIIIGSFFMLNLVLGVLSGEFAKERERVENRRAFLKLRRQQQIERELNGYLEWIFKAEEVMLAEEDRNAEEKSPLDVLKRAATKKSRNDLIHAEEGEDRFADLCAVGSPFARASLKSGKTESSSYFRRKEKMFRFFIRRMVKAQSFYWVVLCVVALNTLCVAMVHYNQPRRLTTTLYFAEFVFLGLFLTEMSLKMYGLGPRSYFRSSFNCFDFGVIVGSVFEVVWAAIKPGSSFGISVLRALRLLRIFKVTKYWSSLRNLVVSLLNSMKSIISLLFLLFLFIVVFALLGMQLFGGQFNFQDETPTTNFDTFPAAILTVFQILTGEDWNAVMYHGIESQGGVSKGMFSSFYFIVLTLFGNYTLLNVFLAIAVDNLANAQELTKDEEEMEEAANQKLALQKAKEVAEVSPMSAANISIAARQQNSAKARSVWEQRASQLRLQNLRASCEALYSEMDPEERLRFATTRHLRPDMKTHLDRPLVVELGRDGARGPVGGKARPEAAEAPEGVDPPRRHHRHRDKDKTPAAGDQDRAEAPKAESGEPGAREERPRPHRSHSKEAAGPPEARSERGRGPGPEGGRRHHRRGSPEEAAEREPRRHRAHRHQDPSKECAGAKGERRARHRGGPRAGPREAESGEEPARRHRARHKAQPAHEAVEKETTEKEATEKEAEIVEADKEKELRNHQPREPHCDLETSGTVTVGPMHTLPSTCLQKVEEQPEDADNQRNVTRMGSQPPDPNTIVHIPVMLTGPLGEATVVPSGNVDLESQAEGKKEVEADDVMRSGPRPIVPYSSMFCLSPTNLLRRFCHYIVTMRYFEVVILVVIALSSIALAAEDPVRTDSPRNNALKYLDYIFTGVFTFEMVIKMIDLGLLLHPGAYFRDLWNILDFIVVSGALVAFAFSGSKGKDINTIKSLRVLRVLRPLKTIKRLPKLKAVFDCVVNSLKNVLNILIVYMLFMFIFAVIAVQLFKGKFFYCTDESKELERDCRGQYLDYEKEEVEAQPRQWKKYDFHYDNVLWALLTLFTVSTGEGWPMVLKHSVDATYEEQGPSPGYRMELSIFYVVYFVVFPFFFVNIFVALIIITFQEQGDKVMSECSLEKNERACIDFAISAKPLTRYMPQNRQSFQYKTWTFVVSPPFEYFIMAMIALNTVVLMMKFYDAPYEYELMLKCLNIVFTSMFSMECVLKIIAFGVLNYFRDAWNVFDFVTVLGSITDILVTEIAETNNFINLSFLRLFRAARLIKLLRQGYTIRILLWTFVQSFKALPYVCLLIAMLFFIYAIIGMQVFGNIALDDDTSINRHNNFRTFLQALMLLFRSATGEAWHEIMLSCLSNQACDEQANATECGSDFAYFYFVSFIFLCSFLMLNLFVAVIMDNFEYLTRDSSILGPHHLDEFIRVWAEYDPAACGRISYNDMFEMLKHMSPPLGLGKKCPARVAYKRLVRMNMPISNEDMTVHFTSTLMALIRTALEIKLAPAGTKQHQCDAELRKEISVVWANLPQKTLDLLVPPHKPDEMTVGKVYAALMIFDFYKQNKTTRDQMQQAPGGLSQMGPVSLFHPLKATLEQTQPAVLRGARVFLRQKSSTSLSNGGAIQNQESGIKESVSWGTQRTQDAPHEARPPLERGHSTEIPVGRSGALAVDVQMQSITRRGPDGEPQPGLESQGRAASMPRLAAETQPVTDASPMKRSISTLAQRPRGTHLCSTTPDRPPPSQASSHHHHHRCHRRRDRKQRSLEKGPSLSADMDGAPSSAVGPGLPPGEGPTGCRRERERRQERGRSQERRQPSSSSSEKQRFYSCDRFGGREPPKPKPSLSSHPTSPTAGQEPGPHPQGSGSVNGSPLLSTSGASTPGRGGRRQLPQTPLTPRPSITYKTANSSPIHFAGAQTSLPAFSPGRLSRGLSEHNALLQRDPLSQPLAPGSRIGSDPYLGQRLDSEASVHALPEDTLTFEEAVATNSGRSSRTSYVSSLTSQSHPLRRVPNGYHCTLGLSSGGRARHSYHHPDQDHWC
# T4 sequence (Q02410 whole entry): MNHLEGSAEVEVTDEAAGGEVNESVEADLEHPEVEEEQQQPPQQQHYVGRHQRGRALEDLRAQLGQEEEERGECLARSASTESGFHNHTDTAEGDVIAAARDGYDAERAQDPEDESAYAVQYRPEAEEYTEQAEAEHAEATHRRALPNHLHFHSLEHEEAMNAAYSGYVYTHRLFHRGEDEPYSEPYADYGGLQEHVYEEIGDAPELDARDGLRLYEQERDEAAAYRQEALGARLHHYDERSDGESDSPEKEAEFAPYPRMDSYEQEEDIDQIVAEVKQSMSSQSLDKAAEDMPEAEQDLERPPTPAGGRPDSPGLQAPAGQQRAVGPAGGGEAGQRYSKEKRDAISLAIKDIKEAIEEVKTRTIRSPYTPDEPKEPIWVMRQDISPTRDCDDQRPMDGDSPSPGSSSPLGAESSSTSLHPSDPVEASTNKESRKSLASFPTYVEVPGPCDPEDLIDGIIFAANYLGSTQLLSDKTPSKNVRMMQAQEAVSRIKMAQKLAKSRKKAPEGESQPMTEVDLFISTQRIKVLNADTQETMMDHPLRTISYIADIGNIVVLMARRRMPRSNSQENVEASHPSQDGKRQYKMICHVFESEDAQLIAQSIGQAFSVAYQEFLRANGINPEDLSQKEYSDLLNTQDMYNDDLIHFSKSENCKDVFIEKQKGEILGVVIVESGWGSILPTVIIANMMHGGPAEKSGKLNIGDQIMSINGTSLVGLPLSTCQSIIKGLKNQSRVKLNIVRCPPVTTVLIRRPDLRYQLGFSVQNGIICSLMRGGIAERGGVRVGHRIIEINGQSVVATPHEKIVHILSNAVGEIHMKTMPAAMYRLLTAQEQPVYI
# T6 sequence (Q9UBE0 whole entry): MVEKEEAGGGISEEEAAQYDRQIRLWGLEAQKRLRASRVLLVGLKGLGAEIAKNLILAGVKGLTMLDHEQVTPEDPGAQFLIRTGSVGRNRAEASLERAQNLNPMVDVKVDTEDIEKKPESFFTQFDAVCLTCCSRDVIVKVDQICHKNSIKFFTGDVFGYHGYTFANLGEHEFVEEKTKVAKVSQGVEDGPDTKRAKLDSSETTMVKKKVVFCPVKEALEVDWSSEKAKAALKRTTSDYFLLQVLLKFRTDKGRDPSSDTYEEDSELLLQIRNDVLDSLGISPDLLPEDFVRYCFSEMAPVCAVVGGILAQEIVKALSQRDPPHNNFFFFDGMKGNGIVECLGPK
# T6 sequence (Q9UBT2 whole entry): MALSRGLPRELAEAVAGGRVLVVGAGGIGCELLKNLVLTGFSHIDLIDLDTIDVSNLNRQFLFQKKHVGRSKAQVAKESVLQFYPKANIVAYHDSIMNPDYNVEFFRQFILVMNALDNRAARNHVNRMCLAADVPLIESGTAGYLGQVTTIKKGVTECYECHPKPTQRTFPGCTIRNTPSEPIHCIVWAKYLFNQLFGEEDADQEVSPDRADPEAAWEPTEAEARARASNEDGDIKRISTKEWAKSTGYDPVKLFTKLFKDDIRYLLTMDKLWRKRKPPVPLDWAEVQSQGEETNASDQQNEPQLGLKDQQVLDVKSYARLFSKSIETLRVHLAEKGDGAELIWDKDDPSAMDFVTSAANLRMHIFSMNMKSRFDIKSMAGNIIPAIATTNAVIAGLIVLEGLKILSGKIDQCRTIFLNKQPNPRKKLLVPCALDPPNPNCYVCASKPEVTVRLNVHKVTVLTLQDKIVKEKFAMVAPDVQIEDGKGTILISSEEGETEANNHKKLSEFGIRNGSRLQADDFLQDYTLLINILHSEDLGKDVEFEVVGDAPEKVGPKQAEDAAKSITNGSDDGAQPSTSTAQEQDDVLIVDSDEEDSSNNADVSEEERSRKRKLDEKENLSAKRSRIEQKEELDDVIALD
# Melanin-concentrating hormone receptor 1, sequence (Q99705 whole entry): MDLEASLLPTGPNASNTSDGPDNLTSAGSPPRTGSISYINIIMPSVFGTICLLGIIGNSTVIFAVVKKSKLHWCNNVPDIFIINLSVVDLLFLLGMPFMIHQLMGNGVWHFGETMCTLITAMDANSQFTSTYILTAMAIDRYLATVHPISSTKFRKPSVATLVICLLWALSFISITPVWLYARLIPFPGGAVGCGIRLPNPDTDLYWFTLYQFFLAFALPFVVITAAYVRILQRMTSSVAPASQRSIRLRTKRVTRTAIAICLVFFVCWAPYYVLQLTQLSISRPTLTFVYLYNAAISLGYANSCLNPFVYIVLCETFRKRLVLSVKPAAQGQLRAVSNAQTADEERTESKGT
# Dual specificity protein phosphatase 3, sequence (P51452 whole entry): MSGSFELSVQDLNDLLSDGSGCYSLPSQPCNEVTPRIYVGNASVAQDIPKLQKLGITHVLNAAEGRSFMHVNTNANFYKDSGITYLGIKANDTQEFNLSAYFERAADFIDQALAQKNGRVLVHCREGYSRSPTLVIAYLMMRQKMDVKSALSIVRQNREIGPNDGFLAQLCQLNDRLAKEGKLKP
# Caspase-7, sequence (P55210 24-198 limits assumed): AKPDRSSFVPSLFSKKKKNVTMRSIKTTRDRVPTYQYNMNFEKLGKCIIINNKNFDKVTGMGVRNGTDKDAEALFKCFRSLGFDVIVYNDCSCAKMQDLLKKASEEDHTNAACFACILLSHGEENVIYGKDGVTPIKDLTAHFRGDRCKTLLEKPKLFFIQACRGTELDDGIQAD
# Caspase-7, sequence (P55210 207-303 limits assumed): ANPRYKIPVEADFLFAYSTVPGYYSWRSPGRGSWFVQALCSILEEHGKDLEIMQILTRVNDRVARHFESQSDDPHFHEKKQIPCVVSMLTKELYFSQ
smiles,measurement,setting,value
O=C1c2ccccc2C(Nc2cccnc2)N1Cc1ccc2c(c1)OCO2 (stereo unspecified),IC50,[1],21.6 µM (active)
O=C(Nc1ccncc1)c1cc(-c2ccccn2)nc2ccc(Br)cc12,IC50,[2],9.44 µM (active)
same,IC50,[3],26.3 µM (inactive)
same,IC50,[4],1.52 µM (active)
COc1ccc2oc3cc(C)[n+]([O-])c(-c4ccc(C)cc4)c3c2c1,IC50,[5],23 µM (active)
CC1(C)Cc2c(c(N3CCCC3)nc3sc(C(=O)Nc4ccccc4)c(N)c23)CO1,EC50,[6],> 85.3 µM (inactive)
same,EC50,[7],> 85.3 µM (inactive)
CNc1nc(-c2ccccc2)[n+](-c2ccc(C)cc2)s1,IC50,[8],< 0.11 µM (active)
same,IC50,[9],1.4 µM (active)
same,IC50,[10],39 µM (active)
same,IC50,[11],6.89 µM (active)
same,IC50,[12],1.49 µM (active)
same,IC50,[13],2.48 µM (active)
same,IC50,[14],10.5 µM (active)
same,IC50,[15],4.47 µM (inactive)
same,IC50,[16],0.278 µM (active)
O=C(Nc1ccc2c(c1)OCO2)C(c1ccccc1)N1CCC(Cc2ccccc2)CC1 (stereo unspecified),IC50,[17],0.802 µM (active)
COc1ccc(Oc2c(Cl)cnn(-c3ccc(C(C)C)cc3)c2=O)cc1,IC50,[18],3.1 µM (active)
O=C(Cn1c2ccccc2c(=O)c2ccccc21)N/N=C/c1cc([N+](=O)[O-])ccc1N1CCCCCC1,IC50,[19],1.94 µM (active)
same,IC50,[20],24.9 µM (active)
same,IC50,[21],6.12 µM (active)
